Results taken from patent US20150252013A1, “TREATMENT OF MULTIPLE SCLEROSIS AND PSORIASIS USING PRODRUGS OF METHYL HYDROGEN FUMARATE” (XenoPort, Inc., priority 2012, published 2015).
Structures can show the parent of a compound that is named as a salt. Where two headings read alike, the source gives them in different places. One block for each compound: values may come before it.

Assays:
rat stomach = test: Gastrointestinal irritation evaluation in rats (Annamalai-Ma gastrointestinal irritation rat model); type: in vivo; conditions: average stomach score (0-5 scale, Table 1) from at least 5 rats; oral, once per day for 4 consecutive days
Description: In order to assess gastrointestinal irritation using this model, rats are treated orally with either vehicle or the MHF prodrug to be tested (n=10 per group) at 180 mg-equivalents MHF/kg of animal body weight, dosed once per day for 4 days, followed by necropsy and gastrointestinal evaluation at 24 hrs after the final dose. Evans Blue dye is injected IV (tail vein) to visually emphasize any lesions in the gastrointestinal tissue.
Rats were dosed once per day for 4 consecutive days with 180 mg-equivalents MHF/kg body weight per day of a number of MHF prodrugs. The animals were fasted overnight prior to necropsy. On Day 5, to help visualize lesions, 1 mL of 1% Evan's blue in saline was injected into the tail vein 30 minutes prior to euthanasia. All animals were euthanized by inhalation of carbon dioxide. A partial necropsy, limited to the abdominal cavities, was performed. The stomach and small intestine were removed. Residual material was washed away, using an irrigation syringe filled with saline. The stomach was cut along the larger curvature and washed gently with normal saline, and was examined for any lesions. The stomachs were scored in accordance with the scoring system outlined in Table 1. The stomach scores from at least 5 rats were used to calculate an average gastrointestinal irritation score, which scores are reported in Table 2.

[1] = system: GST activity in the forestomach tissue of rats; test: Glutathione S transferase (GST) activity of the cytosolic extracts of rat forestomach after oral dosing; type: in vivo; conditions: rat forestomach cytosol; oral gavage 180 mg-equivalents of MMF/kg once per day for 14 days; relative to DMF
Description: wherein SARprodrug is the ratio of (i) the GST activity in the forestomach tissue of rats treated with the MMF prodrug (GSTAprodrug) to (ii) the GST activity in the forestomach tissue of rats treated with a non-irritating control solution comprised of 0.5 wt % methylcellulose and 0.1 wt % Tween 80 in 10 mM sodium acetate buffer, pH 4.5 (GSTAcontrol); and SARDMF is the ratio of (i) the GST activity in the forestomach tissue of rats treated with DMF (GSTADMF) to (ii) the GST activity in the forestomach tissue of rats treated with a non-irritating control solution comprised of 0.5 wt % methylcellulose and 0.1 wt % Tween 80 in 10 mM sodium acetate buffer, pH 4.5 (GSTAcontrol). The SARprodrug is proportional to the amount of GST isozymes induced by the MMF prodrug treatment while the SARDMF is proportional to the amount of GST isozymes induced by DMF prodrug treatment. A detailed description of how to determine the GSTArel is provided in Example 1 herein. […]
Total cytosolic GST activity is determined by measuring the conjugation of 1-chloro-2,4-dinitrobenzene (CDNB) with reduced glutathione. […] The formation of the conjugate is monitored spectrophotometrically by measuring the rate of increase in absorbance at 340 nm over a period of 3 minutes. The rate of increase is measured in μmole/min production of GST-CDNB and is directly proportional to the GST activity in the sample. […]

[2] = MHF and intact prodrug blood levels in the mouse efficacy studies (LC/MS/MS); type: in vivo; conditions: oral dosing
Description: (§1) C57BL/6 mice (6 females) were injected subcutaneously with MOG35-55 peptide in CFA with Mycobacterium tuberculosis. Pertussis toxin ([…]) was injected IV on Day 0 and Day 2 post-immunization. Animals received oral XP23829 or DMF (90 mg-eq MHF/kg twice daily) or vehicle on Days 3 to 29. Daily EAE clinical disease scores (5 point scale) were recorded. End of study MHF blood levels were determined by LC/MS/MS.

[3] = Toxicokinetics at steady state in rats; type: in vivo, rat
Description: (§2) Gastrointestinal toxicity was assessed by gross necropsy and histopathology. Toxicokinetics were assessed at steady state in parallel cohorts.

C57BL/6 mice = test: MOG35-55 mouse EAE model of multiple sclerosis; type: in vivo; conditions: oral 90 mg-eq MHF/kg twice daily, Days 3 to 29
Description: as §1

CD rats [4] = test: 4-week GLP toxicity study in rats, gastrointestinal toxicity by gross necropsy and histopathology; conditions: 500 mg/kg/day for 4 weeks
Description: (§3) (N,N-diethylcarbamoyl)methyl methyl (2E)but-2-ene-1,4-dioate was administered to CD rats (10/sex/dose) at 0 (vehicle), 150, 250, or 500 mg/kg/day and monkeys (3/sex/group) at 0 (vehicle), 25, 75, or 200 mg/kg/day for 4 weeks in GLP toxicity studies. In parallel studies, DMF was administered at doses intended to deliver similar MHF exposures: in rats (10/sex/dose) at 90, 150, and 300 mg/kg/day and monkeys (3/sex/group) at 0 (vehicle), 40, 90, or 250 mg/kg/day for 4 weeks. Gastrointestinal toxicity was assessed by gross necropsy and histopathology.

[5] = Toxicokinetics at steady state in monkeys; type: in vivo, monkey
Description: as §2

Balb/c mice = test: Imiquimod (IMQ) mouse model of psoriasis; type: in vivo; conditions: Day -5 to Day 5
From the text: Balb/c mice (10 males/group) received daily topical IMQ (5% cream) on shaved back and right ear for 5 days. […] Erythema score was the primary outcome measure.

CD rats [6] = conditions: rat, in vivo, 300 mg/kg/day
Description: as §3

monkeys = test: 4-week GLP toxicity study in monkeys, gastrointestinal toxicity by gross necropsy and histopathology
Description: as §3

SMILES: COC(=O)/C=C/C(=O)OCCCN1CCOCC1 [Methyl 3-morpholin-4-ylpropyl (2E)but-2-ene-1,4-dioate]
GI Irritation Score (180 mg-eq of MHF/kg) (rat stomach): 0.0

melting point: 92.1 °C
SMILES: CCN(C(=O)COC(=O)/C=C/C(=O)OC)C1CC1 [(N-cyclopropyl-N-ethylcarbamoyl)methyl methyl 2(E)but-2-ene-1,4-dioate]
GI Irritation Score (180 mg-eq of MHF/kg) (rat stomach): 1.0

SMILES: COC(=O)/C=C/C(=O)OCC(=O)N(C)C [(N,N-Dimethylcarbamoyl)methyl methyl (2E)but-2-ene-1,4-dioate]
GI Irritation Score (180 mg-eq of MHF/kg) (rat stomach): 2.4

SMILES: CCN(CC)C(=O)COC(=O)/C=C/C(=O)OC [(N,N-Diethylcarbamoyl)methyl methyl (2E)but-2-ene-1,4-dioate]
relative GST enzyme activity (GSTArel) [1]: less than 80% | intact prodrug in the systemic blood [2]: not detected | conversion to MHF after absorption [3]: converted rapidly to MHF | prodrug in the systemic circulation [3]: not detected | MHF exposure compared with DMF at 300 mg/kg/day ([3]; 500 mg/kg/day): identical | reduction in EAE clinical score (Day 29 and overall AUC) compared to vehicle (C57BL/6 mice): significant reduction | GI Irritation Score (180 mg-eq of MHF/kg) (rat stomach): 1.4 | glandular stomach findings (CD rats [4]): no adverse effects on glandular stomach | conversion to MHF after absorption [5]: converted rapidly to MHF | prodrug in the systemic circulation [5]: not detected | effect versus control in IMQ model (erythema score primary outcome) (Balb/c mice; oral 90 mg-eq/kg twice daily): significant

SMILES: COC(=O)/C=C/C(=O)OCCCCN1CCOCC1 [Methyl 4-morpholin-4-ylbutyl (2E)but-2-ene-1,4-dioate]
GI Irritation Score (180 mg-eq of MHF/kg) (rat stomach): 0.6

melting point: 102.1 °C
SMILES: COC(=O)/C=C/C(=O)OCC(=O)N1CCCC1 [Methyl 2-oxo-2-pyrrolidinylethyl 2(E)but-2-ene-1,4-dioate]
GI Irritation Score (180 mg-eq of MHF/kg) (rat stomach): 3.0

melting point: 93.6 °C
SMILES: COC(=O)/C=C/C(=O)OCC(=O)N(C)C1CC1 [(N-cyclopropyl-N-methylcarbamoyl)methyl methyl 2(E)but-2-ene-1,4-dioate]
GI Irritation Score (180 mg-eq of MHF/kg) (rat stomach): 2.6

SMILES: COC(=O)/C=C/C(=O)OCCCCCCN1CCOCC1 [Methyl 6-morpholin-4-ylhexyl (2E)but-2-ene-1,4-dioate]
GI Irritation Score (180 mg-eq of MHF/kg) (rat stomach): 0.0

SMILES: COC(=O)/C=C/C(=O)OCCCCCN1CCOCC1 [Methyl 5-morpholin-4-ylpentyl (2E)but-2-ene-1,4-dioate]
GI Irritation Score (180 mg-eq of MHF/kg) (rat stomach): 0.0

SMILES: COC(=O)/C=C/C(=O)OCCN1CCOCC1 [Methyl 2-morpholin-4-ylethyl (2E)but-2-ene-1,4-dioate]
GI Irritation Score (180 mg-eq of MHF/kg) (rat stomach): 0.0

melting point: 124 to 126 °C
SMILES: COC(=O)/C=C/C(=O)OCC(=O)N1CCOCC1 [Methyl 2-morpholin-4-yl-2-oxoethyl (2E)but-2-ene-1,4-dioate]
GI Irritation Score (180 mg-eq of MHF/kg) (rat stomach): 2.9

SMILES: COC(=O)/C=C/C(=O)OC [Dimethyl Fumarate]
glandular stomach findings (CD rats [6]): ulceration, necrosis and loss of mucosa of glandular stomach | reduction in EAE clinical score (Day 29 and overall AUC) compared to vehicle (C57BL/6 mice): not statistically significant | GI Irritation Score (180 mg-eq of MHF/kg) (rat stomach): 4.6 | effect versus control in IMQ model (erythema score primary outcome) (Balb/c mice; oral 45 or 90 mg-eq MMF/kg twice daily (either dose)): not significant | gastric mucosal hyperplasia (histopathology) compared to (N,N-diethylcarbamoyl)methyl methyl (2E)but-2-ene-1,4-dioate (monkeys; monkeys, 4 weeks): greater gastric mucosal hyperplasia | gastrointestinal irritation after 4 weeks of dosing (monkeys; monkeys, 40, 90 or 250 mg/kg/day): dose dependent gastrointestinal irritation | mortality (monkeys; monkeys, high dose, 4 weeks): One high dose DMF monkey died from gastric ulceration
